In ChEMBL document CHEMBL5653631, “A Potent and Selective ULK1 Inhibitor Suppresses Autophagy and Sensitizes Cancer Cells to Nutrient Stress” (iScience, 2018):
Each block holds one compound with its values, some of them ahead of it.

Experiments:
[1] = biological target: Tyrosine-protein kinase Yes (Homo sapiens) (UniProt P07947); test: Inhibition of human recombinant YES at 500 nM in presence of ATP by radiometric assay relative to control
[2] = biological target: Cyclin-dependent kinase-like 3 (Homo sapiens) (UniProt Q8IVW4); test: Inhibition of human recombinant CDKL3 at 500 nM in presence of ATP by radiometric assay relative to control
[3] = biological target: Macrophage colony-stimulating factor 1 receptor (Homo sapiens) (UniProt P07333); test: Inhibition of human recombinant FMS at 500 nM related to control ULK1
[4] = biological target: Proto-oncogene tyrosine-protein kinase receptor Ret (Homo sapiens) (UniProt P07949); test: Inhibition of human recombinant RET at 500 nM related to control ULK1
[5] = biological target: T1, Ephrin type-B receptor 1 (Homo sapiens) (UniProt P54762); test: Inhibition of human recombinant EphB1 at 500 nM in presence of ATP by radiometric assay relative to control
T1 sequence (whole entry): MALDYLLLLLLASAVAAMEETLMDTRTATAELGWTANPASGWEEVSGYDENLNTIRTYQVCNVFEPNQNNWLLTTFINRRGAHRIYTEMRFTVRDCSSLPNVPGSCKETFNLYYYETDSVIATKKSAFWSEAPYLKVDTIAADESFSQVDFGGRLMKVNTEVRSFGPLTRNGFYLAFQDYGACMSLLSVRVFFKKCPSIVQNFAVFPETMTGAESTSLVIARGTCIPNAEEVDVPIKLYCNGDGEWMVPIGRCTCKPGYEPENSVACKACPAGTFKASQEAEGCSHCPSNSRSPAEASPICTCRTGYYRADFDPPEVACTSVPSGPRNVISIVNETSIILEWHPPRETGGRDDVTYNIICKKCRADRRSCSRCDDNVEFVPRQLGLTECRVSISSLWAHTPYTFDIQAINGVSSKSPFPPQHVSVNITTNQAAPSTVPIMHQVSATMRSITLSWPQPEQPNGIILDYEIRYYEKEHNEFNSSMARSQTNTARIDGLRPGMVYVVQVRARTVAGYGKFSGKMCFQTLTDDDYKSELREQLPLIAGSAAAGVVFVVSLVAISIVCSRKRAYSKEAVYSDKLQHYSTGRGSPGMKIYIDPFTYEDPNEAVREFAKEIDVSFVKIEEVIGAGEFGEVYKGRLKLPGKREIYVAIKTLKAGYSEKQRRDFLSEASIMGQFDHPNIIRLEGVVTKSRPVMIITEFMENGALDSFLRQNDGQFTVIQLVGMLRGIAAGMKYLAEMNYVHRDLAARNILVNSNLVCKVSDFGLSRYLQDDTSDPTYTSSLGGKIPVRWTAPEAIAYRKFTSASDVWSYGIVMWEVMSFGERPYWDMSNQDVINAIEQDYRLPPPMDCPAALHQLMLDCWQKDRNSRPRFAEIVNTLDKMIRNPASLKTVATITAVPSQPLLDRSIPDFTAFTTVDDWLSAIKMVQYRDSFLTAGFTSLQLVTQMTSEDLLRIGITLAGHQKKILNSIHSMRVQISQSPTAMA

[6] = biological target: Protein kinase C eta type (Homo sapiens) (UniProt P24723); test: Inhibition of human recombinant PKCH at 15 nM related to control ULK1
[7] = biological target: MAP kinase-activated protein kinase 2 (Homo sapiens) (UniProt P49137); test: Inhibition of human recombinant MAPKAPK2 at 15 nM related to control ULK1
[8] = biological target: Casein kinase I isoform gamma-2 (Homo sapiens) (UniProt P78368); test: Inhibition of human recombinant CK1g2 at 15 nM related to control ULK1
[9] = biological target: T2, Myosin-IIIb (Homo sapiens) (UniProt Q8WXR4); test: Inhibition of human recombinant MYO3B at 15 nM related to control ULK1
T2 sequence (whole entry): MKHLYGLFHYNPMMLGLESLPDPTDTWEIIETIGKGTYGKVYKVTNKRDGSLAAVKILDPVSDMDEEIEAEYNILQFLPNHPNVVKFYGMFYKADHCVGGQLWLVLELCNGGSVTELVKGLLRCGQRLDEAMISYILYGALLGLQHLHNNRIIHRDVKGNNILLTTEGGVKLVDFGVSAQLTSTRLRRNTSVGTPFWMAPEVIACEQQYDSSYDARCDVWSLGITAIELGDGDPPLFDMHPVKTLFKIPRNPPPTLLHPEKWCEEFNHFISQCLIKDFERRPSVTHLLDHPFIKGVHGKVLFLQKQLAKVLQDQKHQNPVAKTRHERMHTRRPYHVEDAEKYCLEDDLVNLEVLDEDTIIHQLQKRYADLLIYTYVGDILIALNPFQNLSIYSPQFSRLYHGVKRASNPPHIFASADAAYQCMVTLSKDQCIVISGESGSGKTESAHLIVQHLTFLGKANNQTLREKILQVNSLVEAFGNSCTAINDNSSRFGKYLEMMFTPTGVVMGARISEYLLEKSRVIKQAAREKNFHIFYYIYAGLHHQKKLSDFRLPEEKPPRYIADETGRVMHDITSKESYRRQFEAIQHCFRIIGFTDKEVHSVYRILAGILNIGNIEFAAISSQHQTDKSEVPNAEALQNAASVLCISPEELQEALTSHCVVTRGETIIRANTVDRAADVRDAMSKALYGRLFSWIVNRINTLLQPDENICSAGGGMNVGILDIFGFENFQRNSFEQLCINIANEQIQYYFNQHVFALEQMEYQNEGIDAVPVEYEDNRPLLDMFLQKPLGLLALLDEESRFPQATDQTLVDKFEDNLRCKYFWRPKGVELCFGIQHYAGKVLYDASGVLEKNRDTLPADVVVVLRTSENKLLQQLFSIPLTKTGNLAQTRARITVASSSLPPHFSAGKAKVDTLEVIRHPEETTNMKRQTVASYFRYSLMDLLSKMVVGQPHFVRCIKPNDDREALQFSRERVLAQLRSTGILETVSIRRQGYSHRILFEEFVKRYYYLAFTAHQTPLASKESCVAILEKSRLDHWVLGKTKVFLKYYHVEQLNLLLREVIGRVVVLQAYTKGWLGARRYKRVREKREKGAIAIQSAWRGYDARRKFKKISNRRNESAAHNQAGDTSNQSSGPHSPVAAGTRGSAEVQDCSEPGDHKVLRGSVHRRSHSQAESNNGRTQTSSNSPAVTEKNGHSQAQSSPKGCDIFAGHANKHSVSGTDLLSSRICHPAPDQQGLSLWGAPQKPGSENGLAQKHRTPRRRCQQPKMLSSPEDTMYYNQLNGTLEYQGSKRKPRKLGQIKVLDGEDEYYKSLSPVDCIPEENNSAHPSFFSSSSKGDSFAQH

[10] = biological target: Serine/threonine-protein kinase PRP4 homolog (Homo sapiens) (UniProt Q13523); test: Inhibition of human recombinant PRP4 at 40 nM related to control ULK1
[11] = biological target: Activin receptor type-2A (Homo sapiens) (UniProt P27037); test: Inhibition of human recombinant ACTR2 at 40 nM in presence of ATP by radiometric assay relative to control

inhibition [1]: 66% | inhibition [2]: 0% | fold change (FC) [3]: 0.26 | fold change (FC) [4]: 0.04 | inhibition [5]: 10%
SMILES: CNC(=O)c1ccccc1Oc1nc(Nc2cc(OC)c(OC)c(OC)c2)ncc1Br

fold change (FC) [6]: 0 | fold change (FC) [7]: 0 | fold change (FC) [8]: 0 | fold change (FC) [9]: 0.07
SMILES: CC(C)[C@H](NC(=O)c1cc(-c2cnn3cc(-c4ccc(OCCN5CCCCC5)cc4)cnc23)cs1)C(F)(F)F

fold change (FC) [10]: 0.08 | inhibition [11]: 1%
SMILES: O=C(N[C@@H](C1CC1)C(F)(F)F)c1cc(-c2cnn3cc(-c4ccc(F)cc4)cnc23)cs1
